Assay results reported in patent publication US6914045B2, “Glycopeptide antibiotics” (Wyeth Holdings Corporation, priority 2001, dated 2005).

How the values were obtained:
Assay in all cases: in vitro antibacterial evaluation, MIC by broth dilution
Type in all cases: cell-based
Escherichia coli = conditions: 18 hours at 35° C.
Summary of the method: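 Broth dilution in Muller-Hinton II medium per NCCLS standard M7-A2, with an inoculum of 5×10^5 CFU/mL and antibiotic tested over 64-0.06 μg/mL. MIC was taken as the lowest concentration inhibiting visible growth.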

Streptococcus sp. = conditions: broth dilution, 18 hours at 35° C.
Summary of the method: (§1)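 Following National Committee for Clinical Laboratory Standards recommendations (M7-A2), susceptibility was measured by dilution in Muller-Hinton II […]. Bacteria were seeded at 5×10^5 CFU/mL against compound concentrations from 64 down to 0.06 μg/mL.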

Staphylococcus sp. = conditions: broth dilution, 18 hours at 35° C.; for MIC Staphylococcus aureus (ATCC 29213): strain ATCC 29213; for MIC Staphylococcus aureus (GC 1131): strain GC 1131; for MIC Staphylococcus aureus (GC 3051): strain GC 3051; for MIC Staphylococcus aureus (GC 3053): strain GC 3053; for MIC Staphylococcus aureus (GC 4541): strain GC 4541; for MIC Staphylococcus aureus (GC 4542): strain GC 4542; for MIC Staphylococcus aureus-SMITH (GC 4543): strain GC 4543; for MIC Staphylococcus aureus (GC 4544): strain GC 4544; for MIC Staphylococcus aureus (GC 4545): strain GC 4545; for MIC Staphylococcus haemolyticus (GC 4546): strain GC 4546; for MIC Coagulase Negative Staphylococcus (GC 4547): strain GC 4547; for MIC Coagulase Negative Staphylococcus (GC 4548): strain GC 4548; for MIC Coagulase Negative Staphylococcus (GC 4549): strain GC 4549; for MIC Coagulase Negative Staphylococcus (GC 4551): strain GC 4551; for MIC Coagulase Negative Staphylococcus (GC 6257): strain GC 6257
Summary of the method: as §1

Enterococcus sp. = conditions: broth dilution, 18 hours at 35° C.
Summary of the method: as §1

CC(c1ccccc1)C1NC(=O)CNC(=O)C(CO)NC(=O)C(C(O)C2CN(Cc3ccccc3)C(=NCc3ccccc3)N2C2OC(CO)C(O)C(O)C2O)NC(=O)C(C(O)C2CN(Cc3ccccc3)C(=NCc3ccccc3)N2Cc2ccccc2)NC(=O)C(Cc2ccc(OC3OC(CO)C(OC4OC(CO)C(O)C(O)C4O)C(O)C3O)cc2)NC1=O (stereo not drawn) [Example 62, Cyclo[glycyl-β-methylphenylalanyl-O-(4-O-hexopyranosylhexopyranosyl)tyrosyl-3-[1,3-dibenzyl-2-(benzylimino)imidazolidin-4-yl]seryl-3-[1-benzyl-2-(benzylimino)-3-hexopyranosylimidazolidin-4-yl]serylseryl]]
4 µg/mL: MIC Escherichia coli (GC 4560) (Escherichia coli)
>128 µg/mL: MIC Escherichia coli (ATCC 25922) (Escherichia coli) | MIC Escherichia coli (GC 4559) (Escherichia coli) | MIC Streptococcus agalactiae (GC 4564) (Streptococcus sp.) | MIC Streptococcus pyogenes (GC 4563) (Streptococcus sp.) | MIC Streptococcus pyogenes (GC 4563) (Streptococcus sp.; strain GC 4563) | MIC Streptococcus agalactiae (GC 4564) (Streptococcus sp.; strain GC 4564) | MIC Staphylococcus aureus (ATCC 29213) (Staphylococcus sp.) | MIC Staphylococcus aureus (GC 1131) (Staphylococcus sp.) | MIC Staphylococcus aureus (GC 3051) (Staphylococcus sp.) | MIC Staphylococcus aureus (GC 3053) (Staphylococcus sp.) | MIC Staphylococcus aureus (GC 4541) (Staphylococcus sp.) | MIC Staphylococcus aureus (GC 4542) (Staphylococcus sp.) | MIC Staphylococcus aureus-SMITH (GC 4543) (Staphylococcus sp.) | MIC Staphylococcus aureus (GC 4544) (Staphylococcus sp.) | MIC Staphylococcus aureus (GC 4545) (Staphylococcus sp.) | MIC Staphylococcus haemolyticus (GC 4546) (Staphylococcus sp.) | MIC Coagulase Negative Staphylococcus (GC 4547) (Staphylococcus sp.) | MIC Coagulase Negative Staphylococcus (GC 4548) (Staphylococcus sp.) | MIC Coagulase Negative Staphylococcus (GC 4549) (Staphylococcus sp.) | MIC Coagulase Negative Staphylococcus (GC 4551) (Staphylococcus sp.) | MIC Coagulase Negative Staphylococcus (GC 6257) (Staphylococcus sp.) | MIC Enterococcus faecalis (ATCC 29212) (Enterococcus sp.; Enterococcus faecalis (ATCC 29212)) | MIC Enterococcus faecalis (GC 4552) (Enterococcus sp.; Enterococcus faecalis (GC 4552)) | MIC Enterococcus faecalis (GC 4554) (Enterococcus sp.; Enterococcus faecalis (GC 4554)) | MIC Enterococcus faecalis (GC 6189) (Enterococcus sp.; Enterococcus faecalis (GC 6189)) | MIC Enterococcus faecium (GC 2243) (Enterococcus sp.; Enterococcus faecium (GC 2243)) | MIC Enterococcus faecium (GC 4556) (Enterococcus sp.; Enterococcus faecium (GC 4556)) | MIC Enterococcus faecalis (ATCC 29212) (Enterococcus sp.) | MIC Enterococcus faecalis (GC 2242) (Enterococcus sp.) | MIC Enterococcus faecalis (GC 2691) (Enterococcus sp.) | MIC Enterococcus faecalis (GC 3059) (Enterococcus sp.) | MIC Enterococcus faecalis (GC 4552) (Enterococcus sp.) | MIC Enterococcus faecalis (GC 4554) (Enterococcus sp.) | MIC Enterococcus faecalis (GC 6189) (Enterococcus sp.) | MIC Enterococcus faecium (GC 2243) (Enterococcus sp.) | MIC Enterococcus faecium (GC 4556) (Enterococcus sp.) | MIC Enterococcus faecalis (GC 2242) (Enterococcus sp.; strain GC 2242) | MIC Enterococcus faecalis (GC 2691) (Enterococcus sp.; strain GC 2691) | MIC Enterococcus faecalis (GC 3059) (Enterococcus sp.; strain GC 3059)
64 µg/mL: MIC Streptococcus pneumoniae (GC 1894) (Streptococcus sp.) | MIC Streptococcus pneumoniae (GC 1894) (Streptococcus sp.; strain GC 1894) | MIC Enterococcus faecium (GC 4557) (Enterococcus sp.; Enterococcus faecium (GC 4557)) | MIC Enterococcus faecium (GC 4557) (Enterococcus sp.)
128 µg/mL: MIC Streptococcus pneumoniae (ATCC 6301) (Streptococcus sp.) | MIC Streptococcus pneumoniae (GC 4565) (Streptococcus sp.) | MIC Streptococcus pneumoniae (ATCC 6301) (Streptococcus sp.; strain ATCC 6301) | MIC Streptococcus pneumoniae (GC 4565) (Streptococcus sp.; strain GC 4565) | MIC Enterococcus avium (GC 4558) (Enterococcus sp.; Enterococcus avium (GC 4558)) | MIC Enterococcus faecalis (GC 4553) (Enterococcus sp.; Enterococcus faecalis (GC 4553)) | MIC Enterococcus avium (GC 4558) (Enterococcus sp.) | MIC Enterococcus faecalis (GC 4553) (Enterococcus sp.)

CC(c1ccccc1)C1NC(=O)CNC(=O)C(CO)NC(=O)C(C(O)C2CNC(=N)N2C2OC(CO)C(O)C(O)C2O)NC(=O)C(C(O)C2CNC(=N)N2)NC(=O)C(Cc2ccc(OC3OC(CO)C(OC4OC5COC(c6ccc(C(=O)c7cc(I)c(I)c(I)c7)cc6)OC5C(O)C4O)C(O)C3O)cc2)NC1=O (stereo not drawn) [Example 187]
>128 µg/mL: MIC Escherichia coli (ATCC 25922) (Escherichia coli) | MIC Escherichia coli (GC 4559) (Escherichia coli)
32 µg/mL: MIC Staphylococcus aureus (GC 3053) (Staphylococcus sp.) | MIC Coagulase Negative Staphylococcus (GC 4551) (Staphylococcus sp.) | MIC Coagulase Negative Staphylococcus (GC 6257) (Staphylococcus sp.) | MIC Enterococcus faecalis (GC 4553) (Enterococcus sp.) | MIC Enterococcus faecalis (GC 4553) (Enterococcus sp.; inoculum 5×10^5 CFU/mL, strain GC 4553)
0.5 µg/mL: MIC Streptococcus pyogenes (GC 4563) (Streptococcus sp.) | MIC Streptococcus pyogenes (GC 4563) (Streptococcus sp.; inoculum 5×10^5 CFU/mL, strain GC 4563)
16 µg/mL: MIC Coagulase Negative Staphylococcus (GC 4548) (Staphylococcus sp.) | MIC Enterococcus avium (GC 4558) (Enterococcus sp.) | MIC Enterococcus faecalis (GC 2691) (Enterococcus sp.) | MIC Enterococcus faecalis (GC 6189) (Enterococcus sp.) | MIC Enterococcus faecium (GC 2243) (Enterococcus sp.) | MIC Enterococcus faecium (GC 4557) (Enterococcus sp.) | MIC Enterococcus faecium (GC 2243) (Enterococcus sp.; inoculum 5×10^5 CFU/mL, strain GC 2243) | MIC Enterococcus faecalis (GC 2691) (Enterococcus sp.; inoculum 5×10^5 CFU/mL, strain GC 2691) | MIC Enterococcus faecium (GC 4557) (Enterococcus sp.; inoculum 5×10^5 CFU/mL, strain GC 4557) | MIC Enterococcus avium (GC 4558) (Enterococcus sp.; inoculum 5×10^5 CFU/mL, strain GC 4558) | MIC Enterococcus faecalis (GC 6189) (Enterococcus sp.; inoculum 5×10^5 CFU/mL, strain GC 6189)
<0.12 µg/mL: MIC Streptococcus agalactiae (GC 4564) (Streptococcus sp.) | MIC Streptococcus pneumoniae (ATCC 6301) (Streptococcus sp.) | MIC Streptococcus pneumoniae (GC 1894) (Streptococcus sp.) | MIC Streptococcus pneumoniae (GC 4565) (Streptococcus sp.) | MIC Streptococcus pneumoniae (ATCC 6301) (Streptococcus sp.; inoculum 5×10^5 CFU/mL, strain ATCC 6301) | MIC Streptococcus pneumoniae (GC 1894) (Streptococcus sp.; inoculum 5×10^5 CFU/mL, strain GC 1894) | MIC Streptococcus agalactiae (GC 4564) (Streptococcus sp.; inoculum 5×10^5 CFU/mL, strain GC 4564) | MIC Streptococcus pneumoniae (GC 4565) (Streptococcus sp.; inoculum 5×10^5 CFU/mL, strain GC 4565)
128 µg/mL: MIC Escherichia coli (GC 4560) (Escherichia coli) | MIC Staphylococcus haemolyticus (GC 4546) (Staphylococcus sp.) | MIC Coagulase Negative Staphylococcus (GC 4547) (Staphylococcus sp.) | MIC Enterococcus faecalis (GC 3059) (Enterococcus sp.) | MIC Enterococcus faecium (GC 4556) (Enterococcus sp.) | MIC Enterococcus faecalis (GC 3059) (Enterococcus sp.; inoculum 5×10^5 CFU/mL, strain GC 3059) | MIC Enterococcus faecium (GC 4556) (Enterococcus sp.; inoculum 5×10^5 CFU/mL, strain GC 4556)
64 µg/mL: MIC Staphylococcus aureus (GC 1131) (Staphylococcus sp.; inoculum 5×10^5 CFU/mL) | MIC Staphylococcus aureus (ATCC 29213) (Staphylococcus sp.) | MIC Staphylococcus aureus (GC 1131) (Staphylococcus sp.) | MIC Staphylococcus aureus (GC 3051) (Staphylococcus sp.) | MIC Staphylococcus aureus (GC 4541) (Staphylococcus sp.) | MIC Staphylococcus aureus (GC 4542) (Staphylococcus sp.) | MIC Staphylococcus aureus-SMITH (GC 4543) (Staphylococcus sp.) | MIC Staphylococcus aureus (GC 4544) (Staphylococcus sp.) | MIC Staphylococcus aureus (GC 4545) (Staphylococcus sp.) | MIC Coagulase Negative Staphylococcus (GC 4549) (Staphylococcus sp.) | MIC Enterococcus faecalis (ATCC 29212) (Enterococcus sp.) | MIC Enterococcus faecalis (GC 2242) (Enterococcus sp.) | MIC Enterococcus faecalis (GC 4552) (Enterococcus sp.) | MIC Enterococcus faecalis (GC 4554) (Enterococcus sp.) | MIC Enterococcus faecalis (ATCC 29212) (Enterococcus sp.; inoculum 5×10^5 CFU/mL, strain ATCC 29212) | MIC Enterococcus faecalis (GC 2242) (Enterococcus sp.; inoculum 5×10^5 CFU/mL, strain GC 2242) | MIC Enterococcus faecalis (GC 4552) (Enterococcus sp.; inoculum 5×10^5 CFU/mL, strain GC 4552) | MIC Enterococcus faecalis (GC 4554) (Enterococcus sp.; inoculum 5×10^5 CFU/mL, strain GC 4554)
